Measurements: patent US10723711B2, “1,1,1-trifluoro-3-hydroxypropan-2-yl carbamate derivatives and 1,1,1-trifluoro-4-hydroxybutan-2-yl carbamate derivatives as MAGL inhibitors” (PFIZER INC., priority 2015, dated 2020)
Like-named read-outs stand apart in the source and are kept apart here. Blank lines part the entries; values can stand above or below the molecule they belong to.

Key:
[1] = target: T1, human recombinant Monoacylglycerol Lipase (Homo sapiens, UniProt Q99685); experiment: MAGL inhibition enzymatic assay, fluorogenic substrate 7-HCA, IC50 at T=0 min or after 30 minute incubation (T=30 min); type: biochemical; conditions: geometric mean of 2-4 determinations unless otherwise indicated
T1 sequence (Q99685 1-303): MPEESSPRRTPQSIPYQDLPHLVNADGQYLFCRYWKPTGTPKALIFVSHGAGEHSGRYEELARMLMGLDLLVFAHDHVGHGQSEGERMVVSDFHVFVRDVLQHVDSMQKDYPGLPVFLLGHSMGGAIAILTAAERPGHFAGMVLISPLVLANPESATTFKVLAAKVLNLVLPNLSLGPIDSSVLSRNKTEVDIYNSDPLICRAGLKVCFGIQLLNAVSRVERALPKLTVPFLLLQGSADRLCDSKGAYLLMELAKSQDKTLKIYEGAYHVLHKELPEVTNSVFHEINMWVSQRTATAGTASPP
Protocol: An equal volume of 7-HCA in assay buffer with 10% DMSO was added either immediately (T=0 min) or after a 30 minute incubation (T=30 min) to initiate the reaction. […] After these dilutions, the final concentration of the test compound ranged from 3 μM to 0.03 nM. […] IC50 values were generated based on a four parameter fit model using ABASE software from IDBS.

[2] = Prodrug in vivo pharmacokinetics in rats after intravenous administration (LC-MS-MS of prodrug and parent); conditions: for % AUC Extrap / AUC / AUC Extrap / Co / Rate Constant / T½ / Vd: Example 31 in plasma, Wistar Hann rats, IV Example 31 at 1.48 mg/kg; for Vd: Vdss
[3] = Prodrug in vivo pharmacokinetics in dogs after intravenous administration (LC-MS-MS of prodrug and parent); conditions: Example 31 in plasma, IV Example 31 at 0.7 mg/kg; for % AUC Extrap / AUC Extrap / Co / Rate Constant / T½ / AUC: Beagle dogs; for clearance / Vd: beagle, dog, in vivo, iv, 0.7 mg/kg; for clearance: CL; for Vd: Vdss
[4] = target: T1, human recombinant Monoacylglycerol Lipase; experiment: MAGL inactivation, enzyme progress curves, kinact/KI; type: biochemical; conditions: from enzyme progress curves, T = 0 min protocol; geometric mean of 2-4 determinations unless otherwise indicated
Outline: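 Human recombinant MAGL ([…]) with compound, 7-HCA substrate (final 5 μM) added immediately (T=0 min), in pH 7.4 HEPES buffer with 0.1% Triton X-100 and 25% glycerin. Fluorescence (Ex/Em 340/465) was read every minute over 60 min, giving progress curves at decreasing compound concentrations (final 3 μM to 0.03 nM).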

human recombinant FAAH = target: T2, human recombinant FAAH (Homo sapiens, UniProt O00519); experiment: FAAH inhibition enzymatic assay, fluorescent substrate Arachidonoyl-AMC, 30 minute incubation; type: biochemical; conditions: T = 30 min (30 minute incubation); geometric mean of 2-4 determinations unless otherwise indicated
T2 construct: purchased Cayman 10010183
T2 sequence (O00519 1-579): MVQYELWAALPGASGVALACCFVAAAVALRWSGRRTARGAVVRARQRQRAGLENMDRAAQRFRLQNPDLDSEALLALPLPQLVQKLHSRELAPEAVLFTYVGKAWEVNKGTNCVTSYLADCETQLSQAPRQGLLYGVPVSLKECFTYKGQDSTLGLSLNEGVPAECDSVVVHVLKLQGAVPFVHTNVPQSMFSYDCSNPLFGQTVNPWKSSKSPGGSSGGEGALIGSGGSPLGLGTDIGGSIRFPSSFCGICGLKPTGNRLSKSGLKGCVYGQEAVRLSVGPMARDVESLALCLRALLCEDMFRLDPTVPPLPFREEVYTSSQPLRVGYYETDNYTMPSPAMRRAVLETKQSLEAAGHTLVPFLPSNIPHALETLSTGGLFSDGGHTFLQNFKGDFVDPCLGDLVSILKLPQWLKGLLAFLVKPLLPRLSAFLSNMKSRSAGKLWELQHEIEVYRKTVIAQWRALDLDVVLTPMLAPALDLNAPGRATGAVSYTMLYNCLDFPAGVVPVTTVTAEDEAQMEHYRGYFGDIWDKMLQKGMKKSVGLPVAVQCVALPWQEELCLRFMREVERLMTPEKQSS

[5] = T = 0 min (substrate added immediately), read-out: MAGL (T = 0 min) IC50
[6] = T = 30 min (30 minute incubation), read-out: MAGL (T = 30 min) IC50

Compound: O=C(O[C@H](COP(=O)([O-])[O-])C(F)(F)F)N1CCC2(CC1)C[C@@H](NS(=O)(=O)c1ccccc1)CO2.[Na+].[Na+] [Example 31, (2R)-3,3,3-Trifluoro-2-[({(3R)-3-[(phenylsulfonyl)amino]-1-oxa-8-azaspiro[4.5]dec-8-yl}carbonyl)oxy]propyl phosphate, disodium salt]
IC50 [1, 5]: > 3000 nM
IC50 [1, 6]: > 3000 nM
% AUC Extrap ([2]; Mean): 1.41%
AUC ([2]; Mean): 43.0 ng·h/mL
AUC Extrap ([2]; Mean): 43.6 ng·h/mL
Co ([2]; Mean): 476 ng/mL
Rate Constant ([2]; Mean): 12.1 h⁻¹
T½ ([2]; Mean): 3.75 min
% AUC Extrap ([2]; Rat 01): 1.19%
AUC Extrap ([2]; Rat 01): 43.6 ng·h/mL
Co ([2]; Rat 01): 399 ng/mL
Rate Constant ([2]; Rat 01): 8.61 h⁻¹
T½ ([2]; Rat 01): 4.83 min
AUC ([2]; Rat 01, AUC interval 0-0.5 Hours): 43.1 ng·h/mL
% AUC Extrap ([2]; Rat 02): 1.62%
AUC Extrap ([2]; Rat 02): 43.6 ng·h/mL
Co ([2]; Rat 02): 553 ng/mL
Rate Constant ([2]; Rat 02): 15.6 h⁻¹
T½ ([2]; Rat 02): 2.67 min
AUC ([2]; Rat 02, AUC interval 0-0.25 Hours): 42.9 ng·h/mL
clearance ([2]; Wistar Hann, rat, in vivo, iv, 1.48 mg/kg): 566 mL/min/kg
Vd ([2]; Wistar Hann, rat, in vivo, iv, 1.48 mg/kg, Mean): 2.23 L/kg
Vd ([2]; Wistar Hann, rat, in vivo, iv, 1.48 mg/kg, Rat 01): 2.86 L/kg
Vd ([2]; Wistar Hann, rat, in vivo, iv, 1.48 mg/kg, Rat 02): 1.59 L/kg
% AUC Extrap ([3]; Dog 01): 0.181%
AUC Extrap ([3]; Dog 01): 108 ng·h/mL
Co ([3]; Dog 01): 1630 ng/mL
Rate Constant ([3]; Dog 01): 11.3 h⁻¹
T½ ([3]; Dog 01): 3.68 min
AUC ([3]; Dog 01, AUC interval 0-0.5 Hours): 108 ng·h/mL
% AUC Extrap ([3]; Dog 02): 0.103%
AUC Extrap ([3]; Dog 02): 53.9 ng·h/mL
Co ([3]; Dog 02): 821 ng/mL
Rate Constant ([3]; Dog 02): 11.2 h⁻¹
T½ ([3]; Dog 02): 3.72 min
AUC ([3]; Dog 02, AUC interval 0-0.5 Hours): 53.8 ng·h/mL
% AUC Extrap ([3]; Mean): 0.142%
AUC ([3]; Mean): 80.9 ng·h/mL
AUC Extrap ([3]; Mean): 81.0 ng·h/mL
Co ([3]; Mean): 1230 ng/mL
Rate Constant ([3]; Mean): 11.3 h⁻¹
T½ ([3]; Mean): 3.7 min
clearance ([3]; Dog 01): 108 mL/min/kg
clearance ([3]; Dog 02): 216 mL/min/kg
clearance ([3]; Mean): 162 mL/min/kg
Vd ([3]; Dog 01): 0.235 L/kg
Vd ([3]; Dog 02): 0.465 L/kg
Vd ([3]; Mean): 0.35 L/kg

Compound: O=C(O[C@H](CO)C(F)(F)F)N1CCC2(CC1)CCN(C(=O)C1CCC(F)(F)CC1)C2 [Example 127]
IC50 [1, 5]: 163 nM
IC50 [1, 6]: 17 nM
MAGL kinact/KI [4]: 2067 1/s per M
IC50 (human recombinant FAAH): > 30000 nM

Compound: O=C(O[C@H](CO)C(F)(F)F)N1CCC2(CC1)CCN(C(=O)N1CCCC1)C2 [Example 133]
IC50 [1, 5]: 174 nM
IC50 [1, 6]: 20 nM
MAGL kinact/KI [4]: 3614 1/s per M
IC50 (human recombinant FAAH): 4750 nM

Compound: O=C(O[C@H](CO)C(F)(F)F)N1CCC2(CC1)CCN(S(=O)(=O)c1cccnc1)C2 [Example 135]
IC50 [1, 5]: 168 nM
IC50 [1, 6]: 13 nM
MAGL kinact/KI [4]: 4723 1/s per M
IC50 (human recombinant FAAH): > 30000 nM

Compound: CN([C@H]1COC2(CCN(C(=O)O[C@H](CO)C(F)(F)F)CC2)C1)S(=O)(=O)CC(F)(F)F [Example 137]
IC50 [1, 5]: 126 nM
IC50 [1, 6]: 11 nM
MAGL kinact/KI [4]: 7582 1/s per M
IC50 (human recombinant FAAH): > 30000 nM

Compound: CN([C@H]1COC2(CCN(C(=O)O[C@H](CO)C(F)(F)F)CC2)C1)S(=O)(=O)c1cnn(C)c1 [Example 138]
IC50 [1, 5]: 185 nM
IC50 [1, 6]: 15 nM
MAGL kinact/KI [4]: 2154 1/s per M
IC50 (human recombinant FAAH): 16300 nM

Compound: CC(C)CS(=O)(=O)N(C)[C@H]1COC2(CCN(C(=O)O[C@H](CO)C(F)(F)F)CC2)C1 [Example 139]
IC50 [1, 5]: 153 nM
IC50 [1, 6]: 15 nM
MAGL kinact/KI [4]: 3058 1/s per M
IC50 (human recombinant FAAH): > 30000 nM

Compound: CN(C(=O)CC1CC1)[C@H]1COC2(CCN(C(=O)O[C@H](CO)C(F)(F)F)CC2)C1 [Example 145]
IC50 [1, 5]: 198 nM
IC50 [1, 6]: 19 nM
MAGL kinact/KI [4]: 1476 1/s per M
IC50 (human recombinant FAAH): > 30000 nM

Molecules with a lower IC50 [1, 5], results first:

IC50 [1, 5]: 96 nM
IC50 [1, 6]: 7 nM
MAGL kinact/KI [4]: 9930 1/s per M
IC50 (human recombinant FAAH): > 23400 nM
Compound: O=C(O[C@H](CO)C(F)(F)F)N1CCC2(CC1)CCN(S(=O)(=O)c1nccs1)C2 [Example 134]

IC50 [1, 5]: 52 nM
IC50 [1, 6]: 5 nM
MAGL kinact/KI [4]: 15516 1/s per M
IC50 (human recombinant FAAH): > 30000 nM
Compound: CN([C@H]1COC2(CCN(C(=O)O[C@H](CO)C(F)(F)F)CC2)C1)S(=O)(=O)c1nccs1 [Example 136]

IC50 [1, 5]: 94 nM
IC50 [1, 6]: 9 nM
MAGL kinact/KI [4]: 4595 1/s per M
IC50 (human recombinant FAAH): > 30000 nM
Compound: CN([C@H]1COC2(CCN(C(=O)O[C@H](CO)C(F)(F)F)CC2)C1)S(=O)(=O)CC1CCC1 [Example 140]

IC50 [1, 5]: 77 nM
IC50 [1, 6]: 7 nM
MAGL kinact/KI [4]: 3519 1/s per M
IC50 (human recombinant FAAH): > 30000 nM
Compound: CN(C(=O)c1cccc(F)c1)[C@H]1COC2(CCN(C(=O)O[C@H](CO)C(F)(F)F)CC2)C1 [Example 141]

IC50 [1, 5]: 84 nM
IC50 [1, 6]: 9 nM
MAGL kinact/KI [4]: 3961 1/s per M
IC50 (human recombinant FAAH): > 30000 nM
Compound: CN(C(=O)C1CCC1)[C@H]1COC2(CCN(C(=O)O[C@H](CO)C(F)(F)F)CC2)C1 [Example 142]

IC50 [1, 5]: 96 nM
IC50 [1, 6]: 10 nM
MAGL kinact/KI [4]: 2585 1/s per M
IC50 (human recombinant FAAH): > 30000 nM
Compound: CN(C(=O)CC1CCC1)[C@H]1COC2(CCN(C(=O)O[C@H](CO)C(F)(F)F)CC2)C1 [Example 143]

IC50 [1, 5]: 105 nM
IC50 [1, 6]: 10 nM
MAGL kinact/KI [4]: 2802 1/s per M
IC50 (human recombinant FAAH): > 30000 nM
Compound: CC(C)CC(=O)N(C)[C@H]1COC2(CCN(C(=O)O[C@H](CO)C(F)(F)F)CC2)C1 [Example 144]
